Laboratory results as given in patent US20180002320A1, “USE OF MACROCYCLIC PICOLINAMIDES AS FUNGICIDES” (DOW AGROSCIENCES LLC, priority 2014, published 2018).
Like-named read-outs stand apart in the source and are kept apart here.

Key:
[1] = test system: Zymoseptoria tritici; experiment: Leaf Blotch of Wheat (SEPTTR) fungicidal activity; format: in vivo; settings: Low Volume (121.5 g/H)
Experimental: Technical grades of materials were dissolved in acetone, which were then mixed with nine volumes of H2O containing 110 ppm Triton X-100. The fungicide solutions were applied onto wheat seedlings using an automated booth sprayer to run-off. All sprayed plants were allowed to air dry prior to further handling. All fungicides were evaluated using the aforementioned method for their activity vs. all target diseases, unless stated otherwise. Wheat leaf blotch and brown rust activity were also evaluated using track spray applications, in which case the fungicides were formulated as EC formulations, containing 0.1% Trycol 5941 in the spray solutions. Wheat plants (variety Yuma) were grown from seed in a greenhouse in 50% mineral soil/50% soil-less Metro mix until the first leaf was fully emerged, with 7-10 seedlings per pot. These plants were inoculated with an aqueous spore suspension of Zymoseptoria tritici either prior to or after fungicide treatments. After inoculation the plants were kept in 100% relative humidity (one day in a dark dew chamber followed by two to three days in a lighted dew chamber at 20° C.) to permit spores to germinate and infect the leaf. The plants were then transferred to a greenhouse set at 20° C. for disease to develop. When disease symptoms were fully expressed on the 1st leaves of untreated plants, infection levels were assessed on a scale of 0 to 100 percent disease severity. Percent disease control was calculated using the ratio of disease severity on treated plants relative to untreated plants.

[2] = test system: Puccinia triticina; experiment: Wheat Brown Rust (PUCCRT) fungicidal activity; format: in vivo; settings: Low Volume (121.5 g/H)
Experimental: Technical grades of materials were dissolved in acetone, which were then mixed with nine volumes of H2O containing 110 ppm Triton X-100. The fungicide solutions were applied onto wheat seedlings using an automated booth sprayer to run-off. All sprayed plants were allowed to air dry prior to further handling. All fungicides were evaluated using the aforementioned method for their activity vs. all target diseases, unless stated otherwise. Wheat leaf blotch and brown rust activity were also evaluated using track spray applications, in which case the fungicides were formulated as EC formulations, containing 0.1% Trycol 5941 in the spray solutions. Wheat plants (variety Yuma) were grown from seed in a greenhouse in 50% mineral soil/50% soil-less Metro mix until the first leaf was fully emerged, with 7-10 seedlings per pot. These plants were inoculated with an aqueous spore suspension of Puccinia triticina either prior to or after fungicide treatments. After inoculation the plants were kept in a dark dew room at 22° C. with 100% relative humidity overnight to permit spores to germinate and infect the leaf. The plants were then transferred to a greenhouse set at 24° C. for disease to develop. Fungicide formulation, application and disease assessment followed the procedures as described in the Example A.

[3] = 24 h, 1 Day Protectant, read-out: SEPTTR 1DP disease control
[4] = 24 h, 1 Day Protectant, read-out: PUCCRT 1DP disease control
[5] = 72 h, 3 Day Curative, read-out: PUCCRT 3DC disease control
[6] = 72 h, 3 Day Curative, read-out: SEPTTR 3DC disease control

| Structure (SMILES) | pest or weed control at 121.5 g/ha [1, 3] [%] | pest or weed control at 121.5 g/ha [2, 4] [%] | pest or weed control at 121.5 g/ha [2, 5] [%] | pest or weed control at 121.5 g/ha [1, 6] [%] |
| --- | --- | --- | --- | --- |
| COc1ccnc(C(=O)N[C@H]2CCCC[C@H](CC3CCCC3)[C@@H](Oc3ccccc3)[C@H](C)OC2=O)c1OC(C)=O [Compound 52] | > 80 | > 80 | < 80 |  |
| C=CCO[C@@H]1[C@@H](CC2CCCC2)CCCC[C@H](NC(=O)c2nccc(OC)c2OCOC(C)=O)C(=O)O[C@H]1C [Compound 53] |  | < 80 |  | < 80 |
| COc1ccnc(C(=O)N[C@H]2CCCC[C@H](CC3CCCC3)[C@@H](OC(=O)C(C)C)[C@H](C)OC2=O)c1OCOC(C)=O [Compound 54] | > 80 | > 80 | < 80 |  |
| CCOCC(=O)OCOc1c(OC)ccnc1C(=O)N[C@H]1CCCC[C@H](CC2CCCC2)[C@@H](OC(=O)C(C)C)[C@H](C)OC1=O [Compound 55] | < 80 | > 80 | < 80 | < 80 |
| COc1ccnc(C(=O)N[C@H]2CCCC[C@H](CC3CCCC3)[C@@H](OC(=O)C(C)C)[C@H](C)OC2=O)c1OC(C)=O [Compound 56, (2S,3R,4R,9S)-9-(3-acetoxy-4-methoxypicolinamido)-4-(cyclopentylmethyl)-2-methyl-10-oxooxecan-3-yl isobutyrate] | > 80 | > 80 | < 80 | < 80 |
| CCCO[C@@H]1[C@@H](CC2CCCC2)CCCC[C@H](NC(=O)c2nccc(OC)c2OCOC(C)=O)C(=O)O[C@H]1C [Compound 57] | < 80 | > 80 | < 80 |  |
| CCCO[C@@H]1[C@@H](CC2CCCC2)CCCC[C@H](NC(=O)c2nccc(OC)c2OC(C)=O)C(=O)O[C@H]1C [Compound 58] | < 80 | > 80 | < 80 | < 80 |
| COc1ccnc(C(=O)N[C@H]2CCCC[C@H](CC3CCCC3)[C@@H](OC)[C@H](C)OC2=O)c1OC(C)=O [Compound 59] | < 80 | > 80 | > 80 |  |
| COc1ccnc(C(=O)N[C@H]2CCCC[C@H](Cc3ccccc3)[C@@H](OC(=O)C(C)C)[C@H](C)OC2=O)c1OCOC(C)=O [Compound 60] | > 80 | > 80 | > 80 | > 80 |
| COc1ccnc(C(=O)N[C@H]2CCCC[C@H](CC3CCCC3)[C@@H](OC)[C@H](C)OC2=O)c1OCOC(C)=O [Compound 61] | < 80 | > 80 | > 80 | < 80 |
| COc1ccnc(C(=O)N[C@H]2CCCC[C@H](Cc3ccccc3)[C@@H](Oc3ccccc3)[C@H](C)OC2=O)c1OCOC(C)=O [Compound 62] | > 80 | > 80 | < 80 | > 80 |
| COc1ccnc(C(=O)N[C@H]2CCCC[C@H](Cc3ccccc3)[C@@H](Oc3ccccc3)[C@H](C)OC2=O)c1OC(C)=O [Compound 64] | > 80 | > 80 | < 80 | > 80 |
| COc1ccc(C[C@H]2CCOC[C@H](NC(=O)c3nccc(OC)c3OC(C)=O)C(=O)O[C@@H](C)[C@@H]2Oc2ccccc2)cc1 [Compound 65] | > 80 | > 80 | < 80 | < 80 |
| COc1ccc(C[C@H]2CCOC[C@H](NC(=O)c3nccc(OC)c3OCOC(C)=O)C(=O)O[C@@H](C)[C@@H]2Oc2ccccc2)cc1 [Compound 66] | > 80 | > 80 | < 80 | > 80 |
| COc1ccc(C[C@H]2CCOC[C@H](NC(=O)c3nccc(OC)c3OCOC(=O)C(C)C)C(=O)O[C@@H](C)[C@@H]2Oc2ccccc2)cc1 [Compound 67, ((4-methoxy-2-(((3S,8S,9R,10S)-8-(4-methoxybenzyl)-10-methyl-2-oxo-9-phenoxy-1,5-dioxecan-3-yl)carbamoyl)pyridin-3-yl)oxy)methyl isobutyrate] | > 80 | > 80 | < 80 | < 80 |
| COc1ccc(C[C@H]2CCOC[C@H](NC(=O)c3nccc(OC)c3OC(=O)C(C)C)C(=O)O[C@@H](C)[C@@H]2Oc2ccccc2)cc1 [Compound 68] | < 80 | > 80 |  | < 80 |
| CC[C@H]1CCOC[C@H](NC(=O)c2nccc(OC)c2OCOC(C)=O)C(=O)O[C@@H](C)[C@@H]1Oc1ccccc1 [Compound 69] | > 80 | > 80 | > 80 | > 80 |
| CC[C@H]1CCOC[C@H](NC(=O)c2nccc(OC)c2OCOC(C)=O)C(=O)O[C@@H](C)[C@@H]1OCC(C)C [Compound 70] | > 80 | > 80 | > 80 | < 80 |
| COc1ccnc(C(=O)N[C@H]2COCC[C@H](Cc3ccc(F)cc3)[C@@H](Oc3ccccc3)[C@H](C)OC2=O)c1OC(C)=O [Compound 71] | > 80 | > 80 | > 80 | > 80 |
| COc1ccnc(C(=O)N[C@H]2COCC[C@H](Cc3ccc(F)cc3)[C@@H](Oc3ccccc3)[C@H](C)OC2=O)c1OCOC(C)=O [Compound 72] | > 80 | > 80 | > 80 | > 80 |
| COc1ccnc(C(=O)N[C@H]2COCC[C@H](Cc3ccc(F)cc3)[C@@H](Oc3ccccc3)[C@H](C)OC2=O)c1OCOC(=O)C(C)C [Compound 73] | > 80 | > 80 | > 80 | > 80 |
| COc1ccnc(C(=O)N[C@H]2COCC[C@H](Cc3ccc(F)cc3)[C@@H](OCC3CC3)[C@H](C)OC2=O)c1OCOC(C)=O [Compound 74] | > 80 | > 80 | > 80 | < 80 |
| COc1ccnc(C(=O)N[C@H]2COCC[C@H](Cc3ccc(F)cc3)[C@@H](OC(=O)C(C)C)[C@H](C)OC2=O)c1OC(C)=O [Compound 75] | > 80 | > 80 | > 80 | < 80 |
| COc1ccnc(C(=O)N[C@H]2COCC[C@H](Cc3ccc(F)cc3)[C@@H](OC(=O)C(C)C)[C@H](C)OC2=O)c1OCOC(C)=O [Compound 76] | > 80 | > 80 | > 80 | > 80 |
